Assay [1] has as its system arctic fox with severe encephalitis (Ljungan virus). The assay can be described thus: Encephalitis in arctic fox treated with Pleconaril. Format: in vivo. As to conditions: one arctic fox, 50 mg/kg twice daily for 7 days. From the text:
The arctic fox in Sweden is a species close to being extinct. The reason for this is unknown. Nordens Ark has a breeding program for arctic foxes with the aim to save the species. However, several animals in captivity have developed encephalitis and died. Nordens Ark has lost almost all their animals. The encephalitis is a slow progressing disease often starting with stereotypic behaviour followed by visual problem, loss of smell and loss of muscle coordination. The condition is slowly progressing over several months leading to the deaths of the animal. No spontaneous recovery has been seen in any of the arctic foxes observed.
Ljungan virus was isolated from the brain of one arctic fox suffering from encephalitis. Ljungan virus RNA was also detected by PCR in the brain and the heart of the same individual. Ljungan virus could also be detected in the brain and the heart by immunohistochemistry.
One arctic fox with severe encephalitis was treated with 50 mg/kg of Pleconaril twice daily for 7 days.

The next assay relates to Bank voles with diabetes. As to the kind of experiment: Diabetic bank voles, oral Pleconaril, glucose tolerance test. Format: in vivo. The following applies: 100 mg/kg per day for seven days orally in drinking water; GTT 60 min, day before treatment vs 15 days later; none of six control animals. The procedure:
Bank voles with diabetes were randomised into 2 groups one treated with Pleconaril and one not receiving any treatment. Treated animals were given 100 mg Pleconaril per kg body weight per day seven days. The drug was administered orally in the drinking water. All animals were subjected to a glucose tolerance test the day before the treatment and again 15 days later. Glucose tolerance test was performed by administrating 2 grams of glucose per kg BW intraperitoneally. The blood glucose levels were measured after 60 min.

Another assay relates to Ljungan virus (LV145 SL). As to the kind of experiment: Antiviral therapy of diabetes in male offspring of Ljungan virus infected laboratory mice. As to conditions: for frequency of animals with diabetes, as measured by GTT: vs infected untreated mice. In kind it is in vivo, CD1 mice. As for the experimental part:
Glucose tolerance test was performed to determine the diagnosis of diabetes. In this test 2 g glucose per kg body weight was administrated intraperitoneally (as 100 mg glucose/ml solution). Blood glucose was measured (Medisence Precision PCx Abbott Laboratories) just before the glucose injection and at 60 and 120 minutes post administration. Diabetes was defined as a blood glucose level above 200 mg/dL in a glucose tolerance test at 120 min.
Abdominal fat in male mice was measured by dissecting out the bilateral scrotal fat cushion. The total weight of both fat cushions was used.
The serum insulin level was measured using a rat insulin high range ELISA kit (Mercodia AB, Uppsala, Sweden) according to the instructions of the manufacturer. Islets prepared from the pancreas were assayed for insulin release and glucose oxidation assay described elsewhere (Blixt, M., Niklasson, B. & Sandler, S. Characterization of β-cell function of pancreatic islets isolated from bank voles developing glucose intolerance/diabetes: an animal model showing features of both type 1 and type 2 diabetes mellitus. Manuscript submitted).
Pregnant outbred CD1 mice (CD-1 (ICR) Br Charles River laboratories, Germany) were infected intraperitoneally with 1000 ID50 units of LV145 SL two days after conception. Control animals were given an injection with the same volume with normal saline at the same time. All female mice were kept in individual cages and followed for the development of gestational diabetes, pregnancy outcome and development of diabetes in the offspring. In half of the infected pregnant mice, mild stress was induced by adding glucose (100 g/liter) to drinking water, performing weekly weights and glucose tolerance testing during the last week of pregnancy. The uninfected control group of pregnant mice was also subjected to stress. Antiviral therapy using LV-specific murine antisera or the oral antiviral compound Pleconaril (200 mg per kg body weight) administrated once a day for 4 consecutive days or a combination of antiserum and Pleconaril was initiated at 5 weeks of age (11-13). At 15 weeks animals were tested by a glucose tolerance test (GTT). Also, serum insulin level and abdominal fat were measured and the histopathology of the pancreas was examined.
Antiviral therapy using LV-specific murine antisera (group IV) or the oral antiviral compound Pleconaril (200 mg per kg body weight) administrated once a day for 4 consecutive days (group III) or a combination of antiserum and Pleconaril (group V) was initiated at 5 weeks of age.
Mice were treated with a combination of Pleconaril and antisera and interferon α. Interferon a was given as 2×10^7 IU/kg/day during three consecutive days during the same week Pleconaril and specific immunoglobulin was administrated. […] In addition, the combination therapy (Pleconaril, antisera, and interferon) normalize the amount of abdominal fat and the level of serum insulin, reducing them to normal levels.

In a further assay the test system is Ljungan virus. The assay can be described thus: Ljungan virus in tissue culture of Vero cells with Pleconaril (CPE). In kind it is cell-based. From the text:
(§1) Ljungan virus was first tested in tissue culture of Vero cells in combination with Pleconaril. 1,6 micrograms of active substance per ml of the tissue culture medium were used. This dose was used in all experiment below where it says “with Pleconaril”.
10 000 000 tissue culture infectious doses (TCID) of Ljungan virus treated with Pleconaril give full cytopathogenic effect (CPE) in 4 days while the control culture with no Pleconaril show full CPE in 3 days.
(§2) For a control picornavirus known not to be sensitive to Pleconaril no inhibition of any amount of the virus can be detected. […] This means that Ljungan virus is semi-sensitive” or “semi-resistant” to Pleconaril.

The test system of assay [2] is control picornavirus known not to be sensitive to Pleconaril. As to the kind of experiment: Tissue culture with Pleconaril, control picornavirus known not to be sensitive. Format: cell-based. As to conditions: any amount of the virus, 1,6 micrograms Pleconaril per ml.
Source text: as §1, §2

For assay [3], the system named is picornavirus known to be sensitive to Pleconaril. The assay can be described thus: Tissue culture with Pleconaril, picornavirus known to be sensitive. In kind it is cell-based. The following applies: 10 000 000 TCID, 1,6 micrograms Pleconaril per ml.
Source text: as §1, §2

For the compound `Cc1cc(CCCOc2c(C)cc(-c3noc(C(F)(F)F)n3)cc2C)on1` [Pleconaril, 3-[3,5-dimethyl-4-[[3-(3-methyl-5-isoxazolyl)propyl]oxy]phenyl]-5-(trifluoromethyl)-1,2,4-oxadiazole], the “clinical condition after the treatment” value in assay [1] is reported as “improved”. For the same compound, in assay [1], the “course after several months” value is “signs and symptoms of encephalitis came back”. Also, in the assay with Bank voles with diabetes, the “animals improved with blood glucose levels decreasing more than 200 mg per dl” value is reported as 2 out of six. In addition, the “No. with blood glucose > 200 md/dL at 120 min” value in the assay on Ljungan virus (LV145 SL) (Table 2, GTT at 15 weeks, therapy started at 5 weeks, number of mice, infected no treatment 8 of 11) stood at 1. Moreover, the “No. with blood glucose > 200 md/dL at 120 min (percent)” value with Ljungan virus (LV145 SL) (Table 2, GTT at 15 weeks, infected no treatment 73%) came to 9%. Also, the “Blood glucose at 60 min” value with Ljungan virus (LV145 SL) (Table 2, GTT at 15 weeks, infected no treatment 242) was determined as 211. The Serum insulin was 4.15 µg/L in the assay with Ljungan virus (LV145 SL) (Table 2, at 15 weeks, infected no treatment 5.04) and 4.15 (5.03) μg/L in the assay on Ljungan virus (LV145 SL) (Table 7, infected mice, spread in brackets, no treatment 5.04 (2.30)). The “Abdominal fat in gram” value in the assay with Ljungan virus (LV145 SL) (Table 2, male mice at 15 weeks, infected no treatment 2.9) was found to be 2.1 gram. Besides, the “No. Hyperglycemic” value in the assay on Ljungan virus (LV145 SL) (Table 7, infected mice, number of mice, no treatment 8 of 11) is recorded as 1. Also, in the assay on Ljungan virus (LV145 SL) (Table 7, infected mice, no treatment 73%), the “No. Hyperglycemic (percent)” value was found to be 9%. Further, in the assay on Ljungan virus (LV145 SL) (Table 7, infected mice, spread in brackets, no treatment 2.90 (0.84)), the Abdominal fat is listed as 2.20 (1.0) g. Moreover, the “Blood glucose @ 60 minutes” value with Ljungan virus (LV145 SL) (Table 7, infected mice, spread in brackets, no treatment 242 (75)) is 211 (79) mg/dL. Further, the “frequency of animals with diabetes, as measured by GTT” value in the assay with Ljungan virus (LV145 SL) is reported as “reduced the frequency of animals with diabetes”; in the assay with Ljungan virus (LV145 SL) (listed as Pleconaril alone) it was “reduced the frequency of diabetes”. Moreover, the “time to full cytopathogenic effect (CPE)” value in the assay on Ljungan virus (10 000 000 TCID of Ljungan virus, Vero cells, 1,6 micrograms Pleconaril per ml, control culture without Pleconaril full CPE in 3 days) came to 4 days. The “inhibition of Ljungan virus” value with Ljungan virus (100 TCID of Ljungan virus, Vero cells, 1,6 micrograms Pleconaril per ml) is recorded as “fully inhibited”. For the same compound, the “sensitivity of Ljungan virus to Pleconaril (conclusion)” value in the assay on Ljungan virus (Vero cells, 1,6 micrograms per ml) is “semi-sensitive”. In addition, the “inhibition of control picornavirus” value in assay [2] is listed as “no inhibition”. For the same compound, in assay [3], the “inhibition of sensitive picornavirus (CPE)” value is listed as “inhibited (no CPE)”.

The record behind these values is patent US7442380B2, “Treatment of diseases caused by viral infection” (Apodemus AB, priority 2003, dated 2008).
